Patent US11814444B2, “Cyclic polypeptides for PCSK9 inhibition” (Ra Pharmaceuticals, Inc., priority 2018, dated 2023)
Numbered stars: 1 amine (or outer) side, 2 acyl side, 3 side chain; on linkers, the order of the positions; unused ones are H or OH. Bridge positions count the residues as written; N and C are the ends. Square brackets hold non-standard residues; d marks the D form. Peptide text beside a SMILES is read from it. X3 = O=C([C@@H]1C[C@@H](SCc2ccc(C[*:3])cc2)CN1[*:1])[*:2]; X2 = O=C([C@@H]1C[C@@H](SC/C=C/C[*:3])CN1[*:1])[*:2]; Ala(1H-tetrazol-5-yl) = N[C@@H](Cc1nnn[nH]1)C(=O)O; Phe(4-CF3) = N[C@@H](Cc1ccc(C(F)(F)F)cc1)C(=O)O; Trp(5-F) = N[C@@H](Cc1c[nH]c2ccc(F)cc12)C(=O)O; Trp(7-aza) = N[C@@H](Cc1c[nH]c2ncccc12)C(=O)O; Pro(cis-4-F) = O=C(O)[C@@H]1C[C@H](F)CN1; Phe(4-F) = N[C@@H](Cc1ccc(F)cc1)C(=O)O; 1Nal = N[C@@H](Cc1cccc2ccccc12)C(=O)O; mXylylene = c1cc(C[*:1])cc(C[*:2])c1; Ala(cPr) = N[C@@H](CC1CC1)C(=O)O; Hyp = O=C(O)[C@@H]1C[C@@H](O)CN1; NH(CH2)5NH = C(CCN[*:1])CCN[*:2]; Aad = N[C@@H](CCCC(=O)O)C(=O)O; Chg = N[C@H](C(=O)O)C1CCCCC1; Pen = CC(C)(S)[C@H](N)C(=O)O; Tle = CC(C)(C)[C@H](N)C(=O)O; αMeV = CC(C)[C@](C)(N)C(=O)O; S5 = C=CCCC[C@](C)(N)C(=O)O; NMeS = CN[C@@H](CO)C(=O)O; Nva = CCC[C@H](N)C(=O)O; Ac4c = NC1(C(=O)O)CCC1; X4 = C(CC[*:2])C[*:1]; Aib = CC(C)(N)C(=O)O; Mpa = O=C(O)CCS

Columns and labels:
PCSK9 = PCSK9 (Homo sapiens, UniProt Q8NBP7); assay: PCSK9 Alexa FRET Standard assay (displacement of AlexaFluor647 tagged cyclic peptide Reagent A); format: binding; conditions: 0.5 nM PCSK9, 20 nM AF cyclic peptide Reagent A
How it was run: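 TR-FRET displacement: 0.5 nM biotinylated PCSK9 with 1.25 nM Strep-Eu and 20 nM AlexaFluor-tagged cyclic peptide (final) in 50 mM HEPES pH 7.4, 0.15 M NaCl, 5 mM CaCl2, 0.01% BSA, 0.01% P20, ≥2 h at room temperature. IC50 from sigmoidal fit, converted to Ki via peptide KD; falling Eu counts flagged false positives.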

[1] = biological target: human PCSK9 / human LDLR EGFa domain interaction (Homo sapiens, UniProt Q8NBP7); assay: TR-FRET assay of inhibition of the PCSK9-LDLR protein-protein interaction; format: binding; conditions: 20 nM avitag-biotinylated human PCSK9, 20 nM his-tagged human LDLR EGFa domain, 2 hours, room temperature
How it was run: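 Avitag-biotinylated human PCSK9 (20 nM) and his-tagged human LDLR EGFa domain (20 nM) were incubated with 5 nM Ulight streptavidin and 5 nM europium anti-6×His for 2 h at room temperature. Buffer: 50 mM HEPES, 150 mM NaCl, 5 mM CaCl2, 0.01% BSA, 0.01% P20. IC50 from 4-parameter fit of dose-response.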

Chain of human PCSK9 / human LDLR EGFa domain interaction (Q8NBP7 153-692): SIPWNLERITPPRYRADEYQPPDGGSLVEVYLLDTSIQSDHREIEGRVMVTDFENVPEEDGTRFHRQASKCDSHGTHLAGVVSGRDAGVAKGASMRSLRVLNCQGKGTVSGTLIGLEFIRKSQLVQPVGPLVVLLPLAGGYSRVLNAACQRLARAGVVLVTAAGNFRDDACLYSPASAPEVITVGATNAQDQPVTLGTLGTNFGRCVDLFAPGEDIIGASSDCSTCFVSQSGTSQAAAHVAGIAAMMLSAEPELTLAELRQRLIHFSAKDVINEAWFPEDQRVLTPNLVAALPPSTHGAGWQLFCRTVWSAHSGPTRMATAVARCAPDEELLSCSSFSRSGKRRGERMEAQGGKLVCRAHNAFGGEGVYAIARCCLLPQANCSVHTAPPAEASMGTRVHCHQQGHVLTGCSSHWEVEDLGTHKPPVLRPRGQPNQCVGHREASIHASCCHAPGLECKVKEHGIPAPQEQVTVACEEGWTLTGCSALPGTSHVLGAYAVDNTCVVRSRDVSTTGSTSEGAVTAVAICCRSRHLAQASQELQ
Chain of human PCSK9 / human LDLR EGFa domain interaction (Q8NBP7 31-152 partner limits assumed): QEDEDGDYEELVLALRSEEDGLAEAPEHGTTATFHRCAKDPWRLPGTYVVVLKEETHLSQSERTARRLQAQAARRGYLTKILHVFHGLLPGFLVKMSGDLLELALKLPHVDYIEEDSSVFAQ
Chain of PCSK9 (Q8NBP7 153-692): as the sequence (Q8NBP7 153-692) above

SMILES | IC50 (PCSK9) | IC50 [1]
CCC[C@@H]1NC(=O)[C@H](Cc2ccc(O)cc2)NC(=O)[C@H](CCC(=O)O)NC(=O)[C@H](CCC)NC(=O)[C@H](Cc2c[nH]c3ncccc23)NC(=O)[C@H]([C@@H](C)O)NC(=O)[C@H](Cc2c[nH]cn2)NC(=O)[C@H](Cc2ccc(O)cc2)NC(=O)[C@H](C(C)(C)C)NC(=O)CCSCc2cccc(c2)CSC[C@@H](C(N)=O)NC(=O)[C@H](Cc2c[nH]cn2)NC1=O [Compound 247] ([Mpa][Tle]YHT[Trp(7-aza)][Nva]EY[Nva]HC-NH2; linker 1-12 via mXylylene) | 1000 to 21000 nM | 100 to 1000 nM
CCC[C@@H]1NC(=O)[C@H](Cc2c[nH]c3ncccc23)NC(=O)[C@H]([C@@H](C)O)NC(=O)[C@H](Cc2c[nH]cn2)NC(=O)[C@H](Cc2ccc(O)cc2)NC(=O)[C@H](C(C)(C)C)NC(=O)CCSCc2cccc(c2)CSC[C@@H](C(N)=O)NC(=O)[C@H]([C@@H](C)O)NC(=O)[C@H](CCC)NC(=O)[C@H](Cc2ccc(O)cc2)NC(=O)[C@H](Cc2nnn[nH]2)NC1=O [Compound 253] ([Mpa][Tle]YHT[Trp(7-aza)][Nva][Ala(1H-tetrazol-5-yl)]Y[Nva]TC-NH2; linker 1-12 via mXylylene) | 1000 to 21000 nM | 100 to 1000 nM
CCC[C@@H]1NC(=O)[C@H](Cc2c[nH]c3ncccc23)NC(=O)[C@H]([C@@H](C)O)NC(=O)[C@H](Cc2c[nH]cn2)NC(=O)[C@H](Cc2ccc(O)cc2)NC(=O)[C@H](C(C)(C)C)NC(=O)CCSCc2cccc(c2)CSC[C@@H](C(N)=O)NC(=O)[C@H]([C@@H](C)O)NC(=O)[C@H](CCC)NC(=O)[C@H](Cc2ccc(O)cc2)NC(=O)[C@H](CC(=O)O)NC1=O [Compound 254] ([Mpa][Tle]YHT[Trp(7-aza)][Nva]DY[Nva]TC-NH2; linker 1-12 via mXylylene) | 1000 to 21000 nM | 100 to 1000 nM
CCC[C@@H]1NC(=O)[C@H](Cc2c[nH]c3ncccc23)NC(=O)[C@H]([C@@H](C)O)NC(=O)[C@H](Cc2c[nH]cn2)NC(=O)[C@H](Cc2ccc(O)cc2)NC(=O)[C@H](C(C)(C)C)NC(=O)CCSCc2cccc(c2)CSC[C@@H](C(N)=O)NC(=O)[C@H]([C@@H](C)O)NC(=O)[C@H](CCC)NC(=O)[C@H](Cc2ccc(O)cc2)NC(=O)[C@H](CCCC(=O)O)NC1=O [Compound 259] ([Mpa][Tle]YHT[Trp(7-aza)][Nva][Aad]Y[Nva]TC-NH2; linker 1-12 via mXylylene) | 1000 to 21000 nM | 100 to 1000 nM
CCC[C@@H]1NC(=O)[C@H](Cc2c[nH]c3ncccc23)NC(=O)[C@H]([C@@H](C)O)NC(=O)[C@H](Cc2c[nH]cn2)NC(=O)[C@H](Cc2ccc(O)cc2)NC(=O)[C@H](C(C)(C)C)NC(=O)CCSCc2cccc(c2)CSC[C@@H](C(N)=O)NC(=O)[C@H]([C@@H](C)O)NC(=O)[C@H](CCC)NC(=O)[C@H](Cc2ccc(C(F)(F)F)cc2)NC(=O)[C@H](CCC(=O)O)NC1=O [Compound 260] ([Mpa][Tle]YHT[Trp(7-aza)][Nva]E[Phe(4-CF3)][Nva]TC-NH2; linker 1-12 via mXylylene) | 1000 to 21000 nM | 1000 to 21000 nM
CCC[C@@H]1NC(=O)[C@H](Cc2c[nH]c3ncccc23)NC(=O)[C@H]([C@@H](C)O)NC(=O)[C@H](Cc2c[nH]cn2)NC(=O)[C@H](Cc2ccc(O)cc2)NC(=O)[C@H](C(C)(C)C)NC(=O)CCSCc2cccc(c2)CSC[C@@H](C(N)=O)NC(=O)[C@H]([C@@H](C)O)NC(=O)[C@H](CCC)NC(=O)[C@H](Cc2c[nH]c3ccc(F)cc23)NC(=O)[C@H](CCC(=O)O)NC1=O [Compound 261] ([Mpa][Tle]YHT[Trp(7-aza)][Nva]E[Trp(5-F)][Nva]TC-NH2; linker 1-12 via mXylylene) | 1000 to 21000 nM | 1000 to 21000 nM
CCC[C@@H]1NC(=O)[C@H](Cc2c[nH]c3ccc(F)cc23)NC(=O)[C@H]([C@@H](C)O)NC(=O)[C@H](Cc2c[nH]cn2)NC(=O)[C@H](Cc2ccc(O)cc2)NC(=O)[C@H](C(C)(C)C)NC(=O)CCSCc2cccc(c2)CSC[C@@H](C(N)=O)NC(=O)[C@H]([C@@H](C)O)NC(=O)[C@H](CCC)NC(=O)[C@H](Cc2ccc(O)cc2)NC(=O)[C@H](CCC(=O)O)NC1=O [Compound 263] ([Mpa][Tle]YHT[Trp(5-F)][Nva]EY[Nva]TC-NH2; linker 1-12 via mXylylene) | 1000 to 21000 nM | 100 to 1000 nM
CCC[C@@H]1NC(=O)[C@H](Cc2ccc(O)cc2)NC(=O)[C@H](CCC(=O)O)NC(=O)[C@H](CC2CC2)NC(=O)[C@H](Cc2c[nH]c3ncccc23)NC(=O)[C@H]([C@@H](C)O)NC(=O)[C@H](Cc2c[nH]cn2)NC(=O)[C@H](Cc2ccc(O)cc2)NC(=O)[C@H](C(C)(C)C)NC(=O)CCSCc2cccc(c2)CSC[C@@H](C(N)=O)NC(=O)[C@H]([C@@H](C)O)NC1=O [Compound 264] ([Mpa][Tle]YHT[Trp(7-aza)][Ala(cPr)]EY[Nva]TC-NH2; linker 1-12 via mXylylene) | 1000 to 21000 nM | 100 to 1000 nM
CCC[C@@H]1NC(=O)[C@H](Cc2ccc(O)cc2)NC(=O)[C@H](CCC(=O)O)NC(=O)[C@H](Cc2ccc(F)cc2)NC(=O)[C@H](Cc2c[nH]c3ncccc23)NC(=O)[C@H]([C@@H](C)O)NC(=O)[C@H](Cc2c[nH]cn2)NC(=O)[C@H](Cc2ccc(O)cc2)NC(=O)[C@H](C(C)(C)C)NC(=O)CCSCc2cccc(c2)CSC[C@@H](C(N)=O)NC(=O)[C@H]([C@@H](C)O)NC1=O [Compound 265] ([Mpa][Tle]YHT[Trp(7-aza)][Phe(4-F)]EY[Nva]TC-NH2; linker 1-12 via mXylylene) | 1000 to 21000 nM | 100 to 1000 nM
CCC[C@@H]1NC(=O)[C@H](Cc2ccc(O)cc2)NC(=O)[C@H](CCC(=O)O)NC(=O)[C@H](C2CCCCC2)NC(=O)[C@H](Cc2c[nH]c3ncccc23)NC(=O)[C@H]([C@@H](C)O)NC(=O)[C@H](Cc2c[nH]cn2)NC(=O)[C@H](Cc2ccc(O)cc2)NC(=O)[C@H](C(C)(C)C)NC(=O)CCSCc2cccc(c2)CSC[C@@H](C(N)=O)NC(=O)[C@H]([C@@H](C)O)NC1=O [Compound 273] ([Mpa][Tle]YHT[Trp(7-aza)][Chg]EY[Nva]TC-NH2; linker 1-12 via mXylylene) | 100 to 1000 nM | 100 to 1000 nM
CCC[C@H](NC(C)=O)C(=O)N[C@H]1CSCc2cccc(c2)CSC[C@@H](C(N)=O)NC(=O)[C@H](Cc2c[nH]c3ccc(F)cc23)NC(=O)[C@@H]2C[C@H](F)CN2C(=O)[C@H](CCCNC(=N)N)NC(=O)CNC(=O)[C@H](CO)N(C)C(=O)[C@H](Cc2c[nH]c3ccc(F)cc23)NC(=O)[C@H](Cc2ccc(O)cc2)NC(=O)[C@H](C(C)(C)C)NC(=O)[C@H]([C@@H](C)CC)NC(=O)[C@H]([C@@H](C)O)NC1=O [Compound 337] (Ac-[Nva]CTI[Tle]Y[Trp(5-F)][NMeS]GR[Pro(cis-4-F)][Trp(5-F)]C-NH2; linker 2-13 via mXylylene) | 1 to 100 nM | 1 to 100 nM
CC(=O)N[C@H]1CSCc2cccc(c2)CSC[C@H](C(N)=O)NC(=O)[C@H]([C@@H](C)O)NC(=O)[C@](C)(C(C)C)NC(=O)[C@H](Cc2ccc(O)cc2)NC(=O)[C@H](C)NC(=O)C2(CCC2)NC(=O)[C@H](Cc2c[nH]c3ncccc23)NC(=O)[C@H]([C@@H](C)O)NC(=O)[C@@H]2C[C@@H]3CN2C(=O)[C@H](Cc2ccc(O)cc2)NC(=O)[C@H](NC1=O)[C@H](C)OCCCCO3 [Compound 343] (Ac-C[dT]Y[Hyp]T[Trp(7-aza)][Ac4c]AY[αMeV]T[dC]-NH2; linker 1-12 via mXylylene; linker 2-4 via X4) | 1000 to 21000 nM | 21000 to 50000 nM
CCC[C@@H]1NC(=O)[C@H](Cc2ccc(O)cc2)NC(=O)[C@H](C)NC(=O)[C@]2(C)CCC/C=C/CCC[C@](C)(NC1=O)C(=O)NCCCCCNC(=O)CCC[C@H](NC(C)=O)C(=O)N[C@@H](C(C)(C)C)C(=O)N[C@@H](Cc1ccc(O)cc1)C(=O)N1CCC[C@H]1C(=O)N[C@@H]([C@@H](C)O)C(=O)N[C@@H](Cc1cccc3ccccc13)C(=O)N2 [Compound 347] (Ac-[Aad][Tle]YPT[1Nal][S5]AY[Nva][S5]; linker 1-C via NH(CH2)5NH; staple (E) 7-11) | 100 to 1000 nM | 100 to 1000 nM
CC(=O)N[C@H]1CCCCNC(=O)CCC[C@@H](C(N)=O)NC(=O)[C@H]([C@@H](C)O)NC(=O)[C@](C)(C(C)C)NC(=O)[C@H](Cc2ccc(O)cc2)NC(=O)[C@H](C)NC(=O)C(C)(C)NC(=O)[C@H](Cc2c[nH]c3ncccc23)NC(=O)[C@H]([C@@H](C)O)NC(=O)[C@@H]2C[C@@H]3CN2C(=O)[C@H](Cc2ccc(O)cc2)NC(=O)[C@@H](NC1=O)C(C)(C)SCc1ccc(cc1)CS3 [Compound 349] (Ac-K[Pen]Y[X3]T[Trp(7-aza)][Aib]AY[αMeV]T[Aad]-NH2; lactam 1-12; thioether 2-4) | 1 to 100 nM | 1 to 100 nM
CC(=O)N[C@H]1CCCCNC(=O)CCC[C@@H](C(N)=O)NC(=O)[C@H]([C@@H](C)O)NC(=O)[C@](C)(C(C)C)NC(=O)[C@H](Cc2ccc(O)cc2)NC(=O)[C@H](C)NC(=O)C(C)(C)NC(=O)[C@H](Cc2c[nH]c3ncccc23)NC(=O)[C@H]([C@@H](C)O)NC(=O)[C@@H]2C[C@@H]3CN2C(=O)[C@H](Cc2ccc(O)cc2)NC(=O)[C@@H](NC1=O)C(C)(C)SC/C=C/CS3 [Compound 350] (Ac-K[Pen]Y[X2]T[Trp(7-aza)][Aib]AY[αMeV]T[Aad]-NH2; lactam 1-12; thioether 2-4) | 100 to 1000 nM | 100 to 1000 nM
